Results taken from PubChem BioAssay AID330 (DTP/NCI, 2004).
Several values for one entry are separate records, joined by “and”; a condition that tells them apart may be missing. Identical values can stand only once. Inconclusive results and toxic doses are left out.

Test system: P388 leukemia ip, CD2F1 mice, survival T/C
Experiment: NCI In Vivo Anticancer Drug Screen. Data for tumor model P388 Leukemia (intraperitoneal) in CD2F1 (CDF1) mice
Details: endpoint: median survival time, higher = longer survival
Procedure, shortened: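 Mice carrying the transplanted tumor received test compound or vehicle. Survival was recorded in each group, and the value is the treated-group measurement divided by that of the vehicle-treated control group.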

[1] = dose: 100.0 mg/kg/injection, schedule: Q01DX009 (ip), vehicle: saline with Tween-80
[2] = dose: 50.0 mg/kg/injection, schedule: Q01DX005 (ip), vehicle: Klucel (hydroxypropylcellulose) (HPC)
[3] = dose: 100.0 mg/kg/injection, schedule: Q01DX005 (ip), vehicle: Klucel (hydroxypropylcellulose) (HPC)
[4] = dose: 25.0 mg/kg/injection, schedule: Q01DX009 (ip), vehicle: saline with Tween-80
[5] = dose: 50.0 mg/kg/injection, schedule: Q01DX009 (ip), vehicle: saline with Tween-80
[6] = dose: 50.0 mg/kg/injection, schedule: Q01DX009 (ip), vehicle: Klucel (hydroxypropylcellulose) (HPC)
[7] = dose: 100.0 mg/kg/injection, schedule: Q01DX009 (ip), vehicle: Klucel (hydroxypropylcellulose) (HPC)
[8] = dose: 200.0 mg/kg/injection, schedule: Q01DX009 (ip), vehicle: Klucel (hydroxypropylcellulose) (HPC)

Compound: CNC=O
- T/C (dose: 80.0 mg/kg/injection, schedule: Q01DX005 (ip), vehicle: water): 108 % of control
- T/C (dose: 160.0 mg/kg/injection, schedule: Q01DX005 (ip), vehicle: water): 115 % of control
- T/C (dose: 197.6 mg/kg/injection, schedule: Q01DX005 (ip), vehicle: saline): 116 % of control
- T/C (dose: 197.6 mg/kg/injection, schedule: Q01DX005 (iv), vehicle: saline): 120 % of control
- T/C (dose: 296.3 mg/kg/injection, schedule: Q01DX005 (ip), vehicle: water): 107 % of control
- T/C (dose: 296.5 mg/kg/injection, schedule: Q01DX001 (ip), vehicle: saline): 101 % of control
- T/C (dose: 296.5 mg/kg/injection, schedule: Q01DX001 (iv), vehicle: saline): 100 % of control
- T/C (dose: 320.0 mg/kg/injection, schedule: Q01DX005 (ip), vehicle: water): 118 % of control
- T/C (dose: 444.4 mg/kg/injection, schedule: Q01DX005 (ip), vehicle: water): 122 % of control
- T/C (dose: 444.5 mg/kg/injection, schedule: Q01DX001 (ip), vehicle: saline): 104 % of control
- T/C (dose: 444.5 mg/kg/injection, schedule: Q01DX001 (iv), vehicle: saline): 103 % of control
- T/C (dose: 444.5 mg/kg/injection, schedule: Q01DX001 (oral), vehicle: saline): 103 % of control
- T/C (dose: 444.5 mg/kg/injection, schedule: Q01DX009 (ip), vehicle: saline): 98 % of control
- T/C (dose: 444.5 mg/kg/injection, schedule: Q01DX009 (oral), vehicle: saline): 173 % of control
- T/C (dose: 666.7 mg/kg/injection, schedule: Q01DX001 (ip), vehicle: saline): 107 % of control
- T/C (dose: 666.7 mg/kg/injection, schedule: Q01DX001 (iv), vehicle: saline): 111 % of control
- T/C (dose: 666.7 mg/kg/injection, schedule: Q01DX001 (oral), vehicle: saline): 114 % of control
- T/C (dose: 666.7 mg/kg/injection, schedule: Q01DX005 (ip), vehicle: saline): 156 % of control
- T/C (dose: 666.7 mg/kg/injection, schedule: Q01DX005 (ip), vehicle: water): 166 % of control
- T/C (dose: 666.7 mg/kg/injection, schedule: Q01DX009 (ip), vehicle: saline): 93 % of control
- T/C (dose: 666.7 mg/kg/injection, schedule: Q01DX009 (oral), vehicle: saline): 98 % of control
- T/C (dose: 1000.0 mg/kg/injection, schedule: Q01DX001 (ip), vehicle: saline): 116 % of control
- T/C (dose: 1000.0 mg/kg/injection, schedule: Q01DX001 (iv), vehicle: saline): 119 % of control
- T/C (dose: 1000.0 mg/kg/injection, schedule: Q01DX001 (oral), vehicle: saline): 116 % of control
- T/C (dose: 1000.0 mg/kg/injection, schedule: Q01DX005 (iv), vehicle: saline): 86 % of control
- T/C (dose: 1000.0 mg/kg/injection, schedule: Q01DX005 (oral), vehicle: saline): 95 % of control
- T/C (dose: 1000.0 mg/kg/injection, schedule: Q01DX009 (oral), vehicle: saline): 98 % of control
- T/C (dose: 1280.0 mg/kg/injection, schedule: Q01DX005 (ip), vehicle: water): 161 % of control
- T/C (dose: 1500.0 mg/kg/injection, schedule: Q01DX001 (ip), vehicle: saline): 120 % of control
- T/C (dose: 1500.0 mg/kg/injection, schedule: Q01DX005 (oral), vehicle: saline): 86 % of control

Compound: CCOC(=O)C(Cc1ccccc1)NC(=O)N(CCCl)CCCl (stereo not given)
- T/C (dose: 66.0 mg/kg/injection, schedule: Q04DX003 (ip), vehicle: saline with Tween-80): 109 % of control
- T/C [1]: 109 % of control
- T/C (dose: 150.0 mg/kg/injection, schedule: Q04DX003 (ip), vehicle: saline with Tween-80): 113 % of control
- T/C (dose: 200.0 mg/kg/injection, schedule: Q01DX009 (ip), vehicle: saline with Tween-80): 122 % of control

Compound: COC(=O)/C(=C(\C)C=O)N1C(=O)C(NC(=O)c2ccccc2)C1SSc1nc2ccccc2s1 (stereo not given)
- T/C (dose: 100.0 mg/kg/injection, schedule: Q01DX001 (ip), vehicle: Klucel (hydroxypropylcellulose) (HPC)): 108 % of control
- T/C (dose: 200.0 mg/kg/injection, schedule: Q01DX001 (ip), vehicle: Klucel (hydroxypropylcellulose) (HPC)): 95 % of control
- T/C (dose: 400.0 mg/kg/injection, schedule: Q01DX001 (ip), vehicle: Klucel (hydroxypropylcellulose) (HPC)): 112 % of control

Compound: c1ccc2c(c1)[nH]c1c2nc2ncccn21
- T/C [2]: 106 % of control
- T/C [3]: 106 % of control

Compound: CCCc1c2cc(OC)c(OC)cc2cc2c3cc(OC)c(OC)cc3cc[n+]12 (tested in a mixture with another compound)
- T/C [4]: 102 % of control
- T/C [5]: 111 % of control
- T/C [1]: 109 % of control

Compound: C[Si]1(C)CC[Si](C)(C)S1
- T/C (dose: 50.0 mg/kg/injection, schedule: Q01DX005 (ip), vehicle: saline with Tween-80): 103 % of control
- T/C (dose: 100.0 mg/kg/injection, schedule: Q01DX005 (ip), vehicle: saline with Tween-80): 108 % of control

Compound: Cc1cc(C)c(SSc2nnnn2C)c(C)c1
- T/C [6]: 100 % of control
- T/C [7]: 90 % of control

Compound: O=C(O)c1cc(C(=O)O)cc(N2C(=O)c3ccccc3C2=O)c1
- T/C (dose: 50.0 mg/kg/injection, schedule: Q01DX009 (ip), vehicle: saline): 100 % of control
- T/C (dose: 100.0 mg/kg/injection, schedule: Q01DX009 (ip), vehicle: saline): 87 % of control
- T/C (dose: 200.0 mg/kg/injection, schedule: Q01DX009 (ip), vehicle: saline): 89 % of control

Compound: CCOC(=O)CC1NCCc2c1[nH]c1ccccc21 (stereo not given)
- T/C (dose: 6.25 mg/kg/injection, schedule: Q01DX001 (ip), vehicle: saline sonified): 90 % of control
- T/C (dose: 12.5 mg/kg/injection, schedule: Q01DX001 (ip), vehicle: saline sonified): 90 % of control
- T/C (dose: 25.0 mg/kg/injection, schedule: Q01DX001 (ip), vehicle: saline sonified): 100 % of control

Compound: CC(=O)N1C=CC(=Cc2ccccc2)C=C1
- T/C [6]: 98 % of control
- T/C [7]: 98 % of control
- T/C [8]: 99 % of control

Compound: CC1(C)N=C(N)N=C(N)N1c1ccc(CCc2ccccc2)c(Cl)c1
- T/C (dose: 4.1 mg/kg/injection, schedule: Q01DX009 (ip), vehicle: saline with Tween-80): 118 % of control
- T/C (dose: 6.25 mg/kg/injection, schedule: Q04DX003 (ip), vehicle: saline sonified): 113 % of control
- T/C (dose: 9.3 mg/kg/injection, schedule: Q01DX009 (ip), vehicle: saline with Tween-80): 118 % of control
- T/C (dose: 12.5 mg/kg/injection, schedule: Q04DX003 (ip), vehicle: saline sonified): 104 % of control
- T/C (dose: 25.0 mg/kg/injection, schedule: Q04DX003 (ip), vehicle: saline sonified): 100 % of control

Compound: CCCCNC(=S)N/N=C/c1nc2ccccc2c(=O)n1-c1ccc(Br)cc1
- T/C (dose: 100.0 mg/kg/injection, schedule: Q04DX002 (ip), vehicle: saline with Tween-80): 98 % of control
- T/C (dose: 200.0 mg/kg/injection, schedule: Q04DX002 (ip), vehicle: saline with Tween-80): 89 % of control

Compound: COc1cc2c(cc1OC)C1CC(OC(=O)c3ccccc3)(c3nccc4cc(OC)c(OC)cc34)CCN1CC2 (stereo not given)
- T/C (dose: 12.5 mg/kg/injection, schedule: Q01DX009 (ip), vehicle: saline with Tween-80): 97 % of control
- T/C [4]: 93 % of control
- T/C [5]: 95 % of control and 97 % of control

Compound: CCN(CCO)CCNc1ccc(C)c2sc3cc(Cl)ccc3c(=O)c12
- T/C (dose: 12.5 mg/kg/injection, schedule: Q01DX005 (ip), vehicle: Klucel (hydroxypropylcellulose) (HPC)): 104 % of control
- T/C (dose: 25.0 mg/kg/injection, schedule: Q01DX005 (ip), vehicle: Klucel (hydroxypropylcellulose) (HPC)): 104 % of control
- T/C [2]: 101 % of control and 102 % of control
- T/C [3]: 111 % of control

Compound: Cc1nc(C(=O)O)cc([N+](=O)[O-])c1C
- T/C (dose: 25.0 mg/kg/injection, schedule: Q01DX009 (ip), vehicle: other): 97 % of control
- T/C (dose: 50.0 mg/kg/injection, schedule: Q01DX009 (ip), vehicle: other): 97 % of control
- T/C (dose: 100.0 mg/kg/injection, schedule: Q01DX009 (ip), vehicle: other): 100 % of control
- T/C (dose: 200.0 mg/kg/injection, schedule: Q01DX009 (ip), vehicle: other): 94 % of control

Compound: Cn1c(=S)sc2ccc(S(=O)(=O)C(F)F)cc21
- T/C (dose: 25.0 mg/kg/injection, schedule: Q01DX009 (ip), vehicle: Klucel (hydroxypropylcellulose) (HPC)): 103 % of control
- T/C [6]: 112 % of control
- T/C [7]: 107 % of control
- T/C [8]: 108 % of control

Compound: Cc1ccc(CNc2ccc(C)c(Cl)c2)cc1
- T/C (dose: 100.0 mg/kg/injection, schedule: Q04DX003 (ip), vehicle: other): 100 % of control
- T/C (dose: 200.0 mg/kg/injection, schedule: Q04DX003 (ip), vehicle: other): 100 % of control
- T/C (dose: 400.0 mg/kg/injection, schedule: Q04DX003 (ip), vehicle: other): 100 % of control
